Experimental data published in patent publication US12492195B2, “Preparation method for and crystal form of 3-aryloxy-3-five-membered heteroaryl-propylamine compound” (Zhangzhou Pien Tze Huang Pharmaceutical Co., Ltd., priority 2020, dated 2025).

Assays:
human TRPA1 channel = target: T1, human TRPA1 channel (Homo sapiens, UniProt O75762); assay: manual patch clamp detection of TRPA1 inhibitory activity; format: cell-based
T1 construct: expressed in transfected cells
Procedure: The stably transfected HEK293 cell line stably expressing human TRPA1 channel was placed in T75 culture flask with DMEM medium containing 15 μg/mL Blasticidin S HCl, 200 μg/mL Hygromycin B and 10% FBS, and cultured in an incubator in 5% CO2 at 37° C. When the cell density reached about 80%, the culture medium was removed, the residue was rinsed once with phosphate buffered saline (PBS) without calcium and magnesium. 2 mL of Trypsin was added to digest for 2 minutes, and 8 mL of culture medium was added to terminate the digestion. The cells were collected to 15 mL centrifuge tube and centrifuged at 800 rpm for 3 min. After the supernatant was removed, the cells were added to appropriate volume of extracellular fluid for re-suspending.
In manual patch clamp detection, HEKA system (Patch Master software) was used together with EPC-10 amplifier to record the whole cell current of TRPA1 stably transfected cell line at room temperature. […]
The record of data and the export of current amplitude measurement were carried out by Patch Master software. […] The original current data were corrected by software for leakage reduction, and the hTRPA1 current amplitude was measured at ±100 mV. The compound dose-effect curve and IC50 were fitted and calculated by GraphPad Prism 5.02 (GraphPad Sofhvare, San Diego, CA).

C57 mice = assay: hot plate pain model in mice; format: in vivo; conditions: 10 mg/kg intraperitoneal, hot plate 55° C.
Procedure: SPF-grade C57 male mice were placed at hot plate with constant 55±0.1° C. […] If the pain reaction of mice was observed, the mice were taken out immediately to prevent mice from scalding. […] Appropriate amount of test compounds were added into required volume of physiological saline and fully suspended, and the concentration of the drug compound was prepared as 1 mg/ml. The standard volume of administration to mice was 10 ml/kg (or 0.1 ml/10 g). The administration mode was intraperitoneal administration. […] The administration volume was 10 ml/kg. […] Hot plate observation indicator is the time latency of mice on the hot plate at 55±0.1° C. Measurement and recording were conducted at 3 h before administration and 15 min, 30 min, and 60 min after administration. Maximum possible effect (MPE) % was used to evaluate analgesic effect of each compound, i.e., MPE %=[(Post drug latency-baseline latency)/(30-baseline latency)]×100. MPE % at different time points was recorded. The higher the value of MPE % was, the stronger the analgesic effect of the compound was.

ICR mice = assay: acetic acid writhing pain model in mice; format: in vivo; conditions: for frequency of writhing response within 30 min: acetic acid 1 h after administration
Procedure: Male ICR mice, weighed 22-25 g, were fasted but allowed to drink water freely for 2 h before administration. All ICR mice were weighed and grouped randomly, and the number of animals in each group was greater than 10. […] […] The drug was administrated intragastrically based on the weight of mice. 1.5% acetic acid solution (0.1 ml/10 g) was injected intraperitoneally 1 hour after administration, and the frequency of visceral pain in each group of mice within 30 min was observed. When concave abdomen, stretched trunk and hind paw, and high buttocks appeared, one number point was recorded. Finally, the number of appearance of the above phenomenon was counted within 30 minutes.

mice = assay: ICS model in mice (fibromyalgia), mechanical hyperalgesia test; format: in vivo; conditions: 10 mg/kg oral
Procedure: Male C57BUJ6 mice weighing 18-22 g at the beginning of experiment were selected. Each cage had 4 mice which were allowed to feed and drink water freely. Each experimental group had 12 mice, and the experimental mice were labeled by tail labeling method.
Day 0: At 4:30 pm, the mice were put in a plexiglass box with stainless steel mesh, and then the plexiglass box was put into a cold storage (4±2° C.) overnight. The mice were allowed to feed freely and agar was used to replace water.
Day 1: At 10:00 am, the mice were delivered to room temperature (24±2° C.) environment for 30 min, and then the mice were delivered to the cold storage for 30 min. The above steps were repeated until 4:30 pm, and the mice were put into the cold storage overnight.
The compounds were administered orally according to the schedule of experiment, and the dosage was 10 mg/kg.
On the fourth day after modeling, the pre-administration mechanical hyperalgesia test was performed on the animals. Animals with PWT value greater than 0.5 g were excluded and were not used for experiments. On the fifth day after modeling, the animals were tested for mechanical hyperalgesia test at 0.5 h, 1 h, and 2 h after the administration of compounds.
The mice were individually placed in a plexiglass box with a grid on the bottom of the box to ensure that the mice paw could be tested. The mice were allowed to adapt for 15 min before the test. After the adaptation was completed, the test fiber was used to test at the center of the left hind paw of mice. The test fiber comprised 8 test strengths: 2.36(0.02 g), 2.44(0.04 g), 2.83(0.07 g), 3.22(0.16 g), 3.61(0.4 g), 3.84(0.6 g), 4.08(1 g), and 4.17(1.4 g). During the test, the test fiber was pressed vertically against the skin and forced to bend for 6-8 s with a 5 s interval between each test. During the test, rapid withdrawal of animal paw was recorded as pain response. When the test fiber was removed from animal skin, the withdrawal of animal paw was also recorded as pain response. If animal moved or walked, the pain response was not recorded, and the test was repeated. In the test. 3.22(0.16 g) was used firstly. […] The maximum strength of tested fiber was 4.17(1.4 g).
Mechanical hyperalgesia was calculated by using the following formula: 50% response threshold (g)=(10^(Xf+k))/10,000; • Xf=the final test fiber value used in the test; • k=table value (Chaplan et al., 1994, page 62); • =mean difference 5. Data Collection and Analysis

T1 sequence (O75762 whole entry): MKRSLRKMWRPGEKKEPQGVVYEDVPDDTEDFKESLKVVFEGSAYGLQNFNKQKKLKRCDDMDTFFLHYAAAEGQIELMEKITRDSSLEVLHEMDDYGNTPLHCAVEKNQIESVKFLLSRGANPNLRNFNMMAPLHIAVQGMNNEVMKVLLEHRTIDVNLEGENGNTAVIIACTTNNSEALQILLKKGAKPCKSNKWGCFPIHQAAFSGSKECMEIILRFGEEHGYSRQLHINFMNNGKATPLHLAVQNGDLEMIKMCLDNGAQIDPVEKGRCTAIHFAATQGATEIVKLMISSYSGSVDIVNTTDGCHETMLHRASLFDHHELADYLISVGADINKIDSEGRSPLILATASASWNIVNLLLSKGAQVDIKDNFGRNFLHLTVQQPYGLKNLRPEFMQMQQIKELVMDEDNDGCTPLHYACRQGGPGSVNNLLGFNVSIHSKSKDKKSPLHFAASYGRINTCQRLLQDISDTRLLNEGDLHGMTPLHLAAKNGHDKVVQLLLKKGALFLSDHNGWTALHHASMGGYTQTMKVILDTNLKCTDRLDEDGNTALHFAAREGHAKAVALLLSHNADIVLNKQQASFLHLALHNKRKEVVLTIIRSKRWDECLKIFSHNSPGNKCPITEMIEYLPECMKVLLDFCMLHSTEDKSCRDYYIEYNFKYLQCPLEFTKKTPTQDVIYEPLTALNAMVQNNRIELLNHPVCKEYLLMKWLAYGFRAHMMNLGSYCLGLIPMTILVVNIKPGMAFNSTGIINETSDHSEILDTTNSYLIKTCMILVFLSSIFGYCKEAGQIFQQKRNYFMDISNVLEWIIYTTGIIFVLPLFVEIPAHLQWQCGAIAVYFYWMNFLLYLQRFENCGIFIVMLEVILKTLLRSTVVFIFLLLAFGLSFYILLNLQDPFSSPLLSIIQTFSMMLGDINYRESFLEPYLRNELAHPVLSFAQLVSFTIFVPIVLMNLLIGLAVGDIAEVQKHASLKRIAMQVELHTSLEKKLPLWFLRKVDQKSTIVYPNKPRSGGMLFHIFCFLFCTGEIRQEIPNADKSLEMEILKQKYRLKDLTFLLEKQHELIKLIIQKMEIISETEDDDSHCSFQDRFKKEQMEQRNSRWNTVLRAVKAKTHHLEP

| ratio of IC50 of the S configuration of duloxetine to the IC50 of the compound (human TRPA1 channel) | Compound | analgesic activity compared with the positive controls gabapentin and duloxetine (C57 mice) | frequency of writhing response within 30 min (ICR mice; 10 mg/kg intragastric) [times] | frequency of writhing response within 30 min (ICR mice; 20 mg/kg intragastric) [times] | PWT(g) Mean ± SD (mice; 0.5 h after administration) [g] | PWT(g) Mean ± SD (mice; 1 h after administration) [g] | PWT(g) Mean ± SD (mice; 2 h after administration) [g] | frequency of writhing response within 30 min (ICR mice; 5 mg/kg intragastric) [times] | half effective dose (EDso) (ICR mice; acetic acid writhing, intragastric) |
| --- | --- | --- | --- | --- | --- | --- | --- | --- | --- |
| 3.9 | CNCC[C@H](Oc1cccc2c1CCC2)c1cccs1 [IC-10] | stronger than those of gabapentin and duloxetine |  |  |  |  |  |  |  |
|  | CNCC[C@H](Oc1cccc2ccccc12)c1cccs1 [Duloxetine (S configuration), Duloxetine, reference compound] |  | 27 | 21 | 0.416 ± 0.140 | 0.648 ± 0.155 | 0.530 ± 0.235 |  |  |
| 10.14 | CNCC[C@H](Oc1cccc2ccoc12)c1cccs1 [IC-1, (S)-3-(Benzofuran-7-yloxy)-N-methyl-3-(thiophen-2-yl)propan-1-amine] | stronger than those of gabapentin and duloxetine | 17 |  | 0.482 ± 0.199 | 0.773 ± 0.261 | 0.607 ± 0.160 | 20 | less than 5 mg/kg |
